The results in this text go back to patent USRE40086E1, “Method for treating bacterial infection with novel 7-substituted-9-substituted amino 6-demethyl-6-deoxytetracyclines” (Wyeth Holdings Corporation, priority 1991, dated 2008).

Holding throughout (experiment): MIC, agar dilution
Common to all, as to assay type: cell-based
(Agar dilution tests growth on a series of plates holding different concentrations.)

For test [1], the system named is S. aureus IVES 2943 (meth. resistant). To be noted: S. aureus IVES 2943 (meth. resistant).
The subject of a further test is E. coli UBMS 89-1 (tetM). Conditions: E. coli UBMS 89-1 (tetM).
The subject of test [2] is S. aureus UBMS 90-2 (tetM). To be noted: S. aureus UBMS 90-2 (tetM).
The subject of test [3] is S. aureus UBMS 90-3 (Sensitive). To be noted: S. aureus UBMS 90-3 (Sensitive).
Test [4] relates to S. aureus Smith (Sensitive). To be noted: S. aureus Smith (Sensitive).
For the next test, the system named is E. faecalis 12201. Conditions: E. faecalis 12201.
Test [5] concerns E. coli UBMS 88-2 (Sensitive). To be noted: E. coli UBMS 88-2 (Sensitive).
The subject of test [6] is S. aureus UBMS 88-4 (Sensitive). To be noted: S. aureus UBMS 88-4 (Sensitive).
Test [7] deals with S. aureus IVES 1983 (meth. resistant). To be noted: S. aureus IVES 1983 (meth. resistant).
In test [8] the test system is S. aureus UBMS 90-1 (tetM). To be noted: S. aureus UBMS 90-1 (tetM).
Test [9] concerns S. aureus ATCC 29213 (Sensitive). Conditions: S. aureus ATCC 29213 (Sensitive).
The subject of test [10] is S. aureus UBMS 88-7 (tetK). To be noted: S. aureus UBMS 88-7 (tetK).
The subject of test [11] is E. coli UBMS 89-2 (Sensitive). Conditions: E. coli UBMS 89-2 (Sensitive).
Another test relates to E. coli UBMS 88-1 (tetB). To be noted: E. coli UBMS 88-1 (tetB).
For the next test, the system named is E. coli ATCC 25922. To be noted: E. coli ATCC 25922.
A further test concerns E. faecalis ATCC 29212. To be noted: E. faecalis ATCC 29212.
Test [12] has as its system S. aureus UBMS 88-5 (tetM). Conditions: S. aureus UBMS 88-5 (tetM).
Test [13] has as its system S. haemolyticus AVAH 88-3. To be noted: S. haemolyticus AVAH 88-3.

≈ marks a conversion by molar mass, not a printed value.

In the case of `CCN(CC)c1cc(NC(C)=O)c(O)c2c1C[C@H]1C[C@H]3[C@H](N(C)C)C(O)=C(C(N)=O)C(=O)[C@@]3(O)C(O)=C1C2=O.O=S(=O)(O)O.O=S(=O)(O)O` [Compound E, 9-(Acetylamino)-7-(diethylamino)-6-demethyl-6-deoxytetracycline disulfate], the MIC in test [1] was determined as 8 mg/L; in the test on E. coli UBMS 89-1 (tetM), 32 mg/L; in test [2] it was 2 mg/L; in test [3], 0.5 mg/L; in test [4], 0.5 mg/L; against E. faecalis 12201, 16 mg/L. For the same molecule, the MIC in test [5] is over 32 mg/L; in [6], 0.5 mg/L; in [7], 16 mg/L; in [8], 8 mg/L; in test [9] it was “≦0.015 μg/ml”; in test [10], 4 mg/L. Also, the minimum inhibitory concentration (MIC) in [11] was over 32 mg/L; in the test with E. coli UBMS 88-1 (tetB), over 32 mg/L; with E. coli ATCC 25922, 32 mg/L; against E. faecalis ATCC 29212, 2.0 mg/L; in test [12], 4 mg/L; in [13], 8 mg/L.
On to `CCN(CC)c1cc(NC(C)=O)c(O)c2c1CC1CC3C(N(C)C)C(O)=C(C(N)=O)C(=O)C3(O)C(O)=C1C2=O` (stereo not drawn) [F, 9-(Acetylamino)-7-(diethylamino)-6-demethyl-6-deoxytetracycline], for which the MIC was found to be 2 mg/L (≈ 3.69 µM) in test [1]; 4 mg/L (≈ 7.37 µM) in the test with E. coli UBMS 89-1 (tetM); 0.5 mg/L (≈ 0.922 µM) in test [2]; 0.12 mg/L (≈ 0.221 µM) in test [3]; 0.12 mg/L (≈ 0.221 µM) in test [4]; 4 mg/L (≈ 7.37 µM) with E. faecalis 12201. The minimal inhibitory concentration (MIC) in test [5] is 32 mg/L (≈ 59 µM); in [6], 0.25 mg/L (≈ 0.461 µM); in test [7], 4 mg/L (≈ 7.37 µM); in test [8] it was 2 mg/L (≈ 3.69 µM); in [9] it was “≦0.015 μg/ml”; in test [10], 2 mg/L (≈ 3.69 µM). Besides, the MIC is 32 mg/L (≈ 59 µM) in test [11]; over 32 mg/L in the test on E. coli UBMS 88-1 (tetB); 4 mg/L (≈ 7.37 µM) against E. coli ATCC 25922; 0.25 mg/L (≈ 0.461 µM) against E. faecalis ATCC 29212; 0.5 mg/L (≈ 0.922 µM) in test [12]; 2 mg/L (≈ 3.69 µM) in test [13].
On to `CN(C)c1cc(NC(=O)COCc2ccccc2)c(O)c2c1CC1CC3C(N(C)C)C(O)=C(C(N)=O)C(=O)C3(O)C(O)=C1C2=O` (stereo not drawn) [J, 7-(Dimethylamino)-9-([(phenylmethoxy)acetyl)amino]-6-demethyl-6-deoxytetracycline], for which the minimal inhibitory concentration (MIC) in test [1] was 4 mg/L (≈ 6.44 µM); with E. coli UBMS 89-1 (tetM), over 32 mg/L; in [2], 2 mg/L (≈ 3.22 µM); in test [3], 0.5 mg/L (≈ 0.806 µM); in test [4], 0.5 mg/L (≈ 0.806 µM); in the test with E. faecalis 12201 it was 2 mg/L (≈ 3.22 µM). Further, the MIC in test [5] was over 32 mg/L; in test [6] it was 2 mg/L (≈ 3.22 µM); in test [7], 4 mg/L (≈ 6.44 µM); in [8], 4 mg/L (≈ 6.44 µM); in test [9], 0.06 mg/L (≈ 0.0967 µM); in test [10] it was 2 mg/L (≈ 3.22 µM). Besides, the MIC was over 32 mg/L in [11]; over 32 mg/L against E. coli UBMS 88-1 (tetB); 32 mg/L (≈ 51.6 µM) against E. coli ATCC 25922; 4 mg/L (≈ 6.44 µM) with E. faecalis ATCC 29212; 4 mg/L (≈ 6.44 µM) in [12]; 4 mg/L (≈ 6.44 µM) in test [13].
Consider `CC(=O)OCC(=O)Nc1cc(N(C)C)c2c(c1O)C(=O)C1=C(O)[C@]3(O)C(=O)C(C(N)=O)=C(O)[C@@H](N(C)C)[C@@H]3C[C@@H]1C2` [K, 9-[[(Acetyloxy)acetyl]amino)-7-(dimethylamino)-6-demethyl-6-deoxytetracycline], for which the MIC was 32 mg/L (≈ 55.9 µM) in [1]; 1 mg/L (≈ 1.75 µM) against E. coli UBMS 89-1 (tetM); 0.06 mg/L (≈ 0.105 µM) in test [2]; 0.03 mg/L (≈ 0.0524 µM) in [3]; “≦0.015 μg/ml” in test [4]; 0.25 mg/L (≈ 0.437 µM) with E. faecalis 12201. The MIC in [5] is 4 mg/L (≈ 6.99 µM); in test [6] it was 0.12 mg/L (≈ 0.21 µM); in [7] it was 32 mg/L (≈ 55.9 µM); in test [8], 0.25 mg/L (≈ 0.437 µM); in [9] it was “≦0.015 μg/ml”; in test [10] it was 32 mg/L (≈ 55.9 µM). The MIC is 8 mg/L (≈ 14 µM) in test [11]; 16 mg/L (≈ 27.9 µM) in the test with E. coli UBMS 88-1 (tetB); 4 mg/L (≈ 6.99 µM) against E. coli ATCC 25922; 0.06 mg/L (≈ 0.105 µM) against E. faecalis ATCC 29212; 0.25 mg/L (≈ 0.437 µM) in test [12]; 0.5 mg/L (≈ 0.873 µM) in test [13].
Regarding `CN(C)c1cc(NC(=O)CO)c(O)c2c1CC1CC3C(N(C)C)C(O)=C(C(N)=O)C(=O)C3(O)C(O)=C1C2=O` (stereo not drawn) [L, 7-(Dimethylamino)-9-[(hydroxyacetyl)amino]-6-demethyl-6-deoxytetracycline], the MIC in [1] was over 32 mg/L; against E. coli UBMS 89-1 (tetM), over 32 mg/L; in [2] it was 2 mg/L (≈ 3.77 µM); in test [3], 1 mg/L (≈ 1.88 µM); in [4], 0.5 mg/L (≈ 0.942 µM); in the test with E. faecalis 12201, 4 mg/L (≈ 7.54 µM). For the same molecule, the MIC in test [5] is over 32 mg/L; in test [6] it was 4 mg/L (≈ 7.54 µM); in test [7], over 32 mg/L; in test [8] it was 8 mg/L (≈ 15.1 µM); in test [9], 0.5 mg/L (≈ 0.942 µM); in test [10], over 32 mg/L. For the same molecule, the MIC was over 32 mg/L in [11]; over 32 mg/L against E. coli UBMS 88-1 (tetB); 32 mg/L (≈ 60.3 µM) with E. coli ATCC 25922; 2 mg/L (≈ 3.77 µM) in the test on E. faecalis ATCC 29212; 4 mg/L (≈ 7.54 µM) in test [12]; 16 mg/L (≈ 30.2 µM) in test [13].
`CN(C)c1cc(NC(=O)CN)c(O)c2c1CC1CC3C(N(C)C)C(O)=C(C(N)=O)C(=O)C3(O)C(O)=C1C2=O.O=C(O)C(F)(F)F` (stereo not drawn) [M, 9-[(Aminoacetyl)amino]-7-(dimethylamino)-6-demethyl-6-deoxytetracycline mono(trifluoroacetate)]: the MIC in test [1] was over 32 mg/L; against E. coli UBMS 89-1 (tetM), 2 mg/L; in test [2], 0.5 mg/L; in [3], 0.5 mg/L; in [4] it was 1 mg/L; against E. faecalis 12201, 0.25 mg/L. Moreover, the MIC is 2 mg/L in test [5]; 1 mg/L in [6]; over 32 mg/L in test [7]; 2 mg/L in test [8]; 0.5 mg/L in test [9]; over 32 mg/L in [10]. For the same molecule, the MIC in test [11] is 2 mg/L; with E. coli UBMS 88-1 (tetB), 2 mg/L; in the test on E. coli ATCC 25922, 2 mg/L; in the test on E. faecalis ATCC 29212 it was 0.25 mg/L; in test [12], 1 mg/L; in test [13], 1 mg/L.
For the molecule `CN(C)c1cc(NC(=O)c2cccc(C(F)(F)F)c2)c(O)c2c1CC1CC3C(N(C)C)C(O)=C(C(N)=O)C(=O)C3(O)C(O)=C1C2=O` (stereo not drawn) [U, 7-(Dimethylamino)-9-[[3-(trifluoromethyl)benzoyl)amino]-6-demethyl-6-deoxytetracycline], the MIC was 1 mg/L (≈ 1.55 µM) in test [1]; over 32 mg/L with E. coli UBMS 89-1 (tetM); 1 mg/L (≈ 1.55 µM) in [2]; 0.5 mg/L (≈ 0.776 µM) in test [3]; 1 mg/L (≈ 1.55 µM) in test [4]; 1 mg/L (≈ 1.55 µM) with E. faecalis 12201. The minimal inhibitory concentration (MIC) is over 32 mg/L in test [5]; 0.5 mg/L (≈ 0.776 µM) in test [6]; 1 mg/L (≈ 1.55 µM) in test [7]; 1 mg/L (≈ 1.55 µM) in test [8]; 0.5 mg/L (≈ 0.776 µM) in test [9]; 1 mg/L (≈ 1.55 µM) in test [10]. Further, the MIC entry in test [11] is “≧32 μg/ml”; against E. coli UBMS 88-1 (tetB), over 32 mg/L; in the test on E. coli ATCC 25922 it was “≧32 μg/ml”; against E. faecalis ATCC 29212 it was 1 mg/L (≈ 1.55 µM); in [12], 1 mg/L (≈ 1.55 µM); in test [13], 1 mg/L (≈ 1.55 µM).
`CN(C)c1cc(NC(=O)c2ccc([N+](=O)[O-])cc2)c(O)c2c1CC1CC3C(N(C)C)C(O)=C(C(N)=O)C(=O)C3(O)C(O)=C1C2=O` (stereo not drawn) [V, 7-(Dimethylamino)-9-[(4-nitrobenzoyl)amino]-6-demethyl-6-deoxytetracycline]: the MIC in test [1] was 4 mg/L (≈ 6.43 µM); with E. coli UBMS 89-1 (tetM) it was over 32 mg/L; in test [2], 1 mg/L (≈ 1.61 µM); in test [3] it was 0.5 mg/L (≈ 0.804 µM); in test [4], 0.5 mg/L (≈ 0.804 µM); with E. faecalis 12201, 4 mg/L (≈ 6.43 µM). The MIC in test [5] was over 32 mg/L; in test [6] it was 2 mg/L (≈ 3.22 µM); in test [7], 8 mg/L (≈ 12.9 µM); in test [8] it was 2 mg/L (≈ 3.22 µM); in test [9], 0.25 mg/L (≈ 0.402 µM); in test [10], 4 mg/L (≈ 6.43 µM). Also, the MIC in [11] was over 32 mg/L; against E. coli UBMS 88-1 (tetB), over 32 mg/L; with E. coli ATCC 25922, over 32 mg/L; with E. faecalis ATCC 29212 it was 4 mg/L (≈ 6.43 µM); in [12], 2 mg/L (≈ 3.22 µM); in test [13], 4 mg/L (≈ 6.43 µM).

One may read the MIC as the lowest concentration that inhibits growth of the organism. Higher therefore signals a less susceptible organism.
